Values of other authors as cited in US12371748B2, “Genetic markers for predicting responsiveness to therapy with HDL-raising or HDL mimicking agent” (Hoffmann-La Roche Inc., priority 2014, dated 2025).

Molecular target: T1, CETP (Oryctolagus cuniculus, UniProt P22687)
T1 construct: host or cells: rabbits (in vivo; endogenous plasma CETP)
T1 sequence (P22687 2-497): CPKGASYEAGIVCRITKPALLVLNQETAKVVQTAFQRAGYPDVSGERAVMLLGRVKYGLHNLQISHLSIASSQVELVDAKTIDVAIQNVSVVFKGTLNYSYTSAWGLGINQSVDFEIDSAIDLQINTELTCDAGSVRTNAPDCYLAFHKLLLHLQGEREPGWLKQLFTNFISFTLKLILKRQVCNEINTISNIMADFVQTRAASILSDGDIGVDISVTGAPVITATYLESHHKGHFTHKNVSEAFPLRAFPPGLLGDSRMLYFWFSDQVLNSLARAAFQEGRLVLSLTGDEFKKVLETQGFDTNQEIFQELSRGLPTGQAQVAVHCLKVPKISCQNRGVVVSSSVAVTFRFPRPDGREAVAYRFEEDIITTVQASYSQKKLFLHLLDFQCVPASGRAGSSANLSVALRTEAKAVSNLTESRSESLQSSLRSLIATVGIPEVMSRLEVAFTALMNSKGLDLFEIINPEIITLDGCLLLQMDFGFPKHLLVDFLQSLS
Settings: rabbits; cited from earlier work

CCC(CC)CC1(C(=O)Nc2ccccc2SC(=O)C(C)C)CCCCC1 [dalcetrapib, thioisobutyric acid S-(2-{[1-(2-ethyl-butyl)-cyclohexanecarbonyl]-amino}-phenyl) ester]
CETP activity: inhibitor of CETP activity
